Here are results for 43 molecules from patent EP2929883A1, “Pyrazole derivatives as dihydroorotate dehydrogenase (DHODH) inhibitors” (INSTITUT PASTEUR, priority 2014, dated 2015).

The subject of the assay is measles virus. Description: microbe, parasite or virus in culture. To be noted: Measles morbillivirus, 24 h.

≈ marks a conversion by molar mass, not a printed value. A value given as a limit tells only on which side of the number the result lay.

Regarding `CCc1cnc(-n2nc(OC(C)C)c(Cc3cccc(F)c3)c2C)nc1` [example 11, 5-ethyl-2-(4-(3-fluorobenzyl)-3-isopropoxy-5-methyl-1H-pyrazol-1-yl)pyrimidine], the MIC50 lay within 0.0005 to 0.05 µM (≈ 0.000177 to 0.0177 µg/mL). For the molecule `COc1cc(-c2ccc(Cl)c(Cl)c2)n(-c2ccccn2)n1` [example 143, 2-(5-(3,4-dichlorophenyl)-3-methoxy-1H-pyrazol-1-yl)pyridine], the MIC50 is greater than 5 µM. `Cc1c(Cc2ccccc2)c(OC(C)C)nn1-c1ccccn1` [example 165, 2-(4-benzyl-3-isopropoxy-5-methyl-1H-pyrazol-1-yl)pyridine] returned an MIC50 greater than 5 µM. `Cc1c(Oc2cccnc2)c(OC(C)C)nn1-c1ncc(C2CC2)cn1` [example 110, 5-cyclopropyl-2-(3-isopropoxy-5-methyl-4-(pyridin-3-yloxy)-1H-pyrazol-1-yl)pyrimidine] registered an MIC50 of 0.5 to 5 µM (≈ 0.176 to 1.76 µg/mL).

In turn, `Cc1c(Cc2ccccc2)c(=O)n(-c2ncc(Br)cn2)n1-c1ncc(Br)cn1` [example 44, 4-benzyl-1,2-bis(5-bromopyrimidin-2-yl)-5-methyl-1H-pyrazol-3(2H)-one] registered an MIC50 of 0.5 to 5 µM (≈ 0.251 to 2.51 µg/mL). The molecule `CCOc1nn(-c2ccc(C3CC3)cn2)c(C)c1Oc1cc(Cl)cc(Cl)c1` [example 96, 5-cyclopropyl-2-(4-(3,5-dichlorophenoxy)-3-ethoxy-5-methyl-1H-pyrazol-1-yl)pyridine] had an MIC50 of 0.05 to 0.5 µM (≈ 0.0202 to 0.202 µg/mL).

Molecule `CCOc1ccc(-n2nc(OC(C)C)c(Oc3c(F)cccc3F)c2C)nn1` [example 174A, 3-(4-(2,6-difluorophenoxy)-3-isopropoxy-5-methyl-1H-pyrazol-1-yl)-6-ethoxypyridazine] yielded an MIC50 of 0.05 to 0.5 µM (≈ 0.0195 to 0.195 µg/mL).

For `CCOc1nn(-c2ncc(CC)cn2)c(C)c1Oc1cc(Cl)cc(Cl)c1` [example 79, 2-(4-(3,5-dichlorophenoxy)-3-ethoxy-5-methyl-1H-pyrazol-1-yl)-5-ethylpyrimidine], the MIC50 is 0.5 to 5 µM (≈ 0.197 to 1.97 µg/mL). The molecule `CCOc1nn(-c2ncc(CC)cn2)c(C)c1Oc1ccccc1` [example 72, 2-(3-ethoxy-5-methyl-4-phenoxy-1H-pyrazol-1-yl)-5-ethylpyrimidine] showed an MIC50 of 0.5 to 5 µM (≈ 0.162 to 1.62 µg/mL).

The molecule `CCC(C)Oc1nn(-c2ncc(C3CC3)cn2)c(C)c1Cc1ccccc1` (stereo not shown) [example 142, 2-(4-benzyl-3-sec-butoxy-5-methyl-1H-pyrazol-1-yl)-5-cyclopropylpyrimidine] returned an MIC50 of 0.0005 to 0.05 µM (≈ 0.000181 to 0.0181 µg/mL). The same measure for `CCOc1nn(-c2ccc(C)cn2)c(C)c1Oc1ccccc1` [example 127, 2-(3-ethoxy-5-methyl-4-phenoxy-1H-pyrazol-1-yl)-5-methylpyridine]: 0.5 to 5 µM (≈ 0.155 to 1.55 µg/mL); for `CCOc1nn(-c2ncc(CC)cn2)c(C)c1-c1ccc(F)cc1F` [example 154, 2-(4-(2,4-difluorophenyl)-3-ethoxy-5-methyl-1H-pyrazol-1-yl)-5-ethylpyrimidine]: greater than 5 µM. `CC(C)Oc1nn(-c2ccc(C3CC3)cn2)cc1C(=O)c1ccccc1` [example 109, (1-(5-cyclopropylpyridin-2-yl)-3-isopropoxy-1H-pyrazol-4-yl)(phenyl)methanone] registered an MIC50 of 0.5 to 5 µM (≈ 0.174 to 1.74 µg/mL). The same measure for `CCOc1nn(-c2ccccn2)c(C)c1Cc1ccccc1` [example 30, 2-(4-benzyl-3-ethoxy-5-methyl-1H-pyrazol-1-yl)pyridine]: greater than 5 µM; for `CCOc1nn(-c2ccc(C(F)(F)F)cn2)c(C)c1Cc1ccccc1` [example 38, 2-(4-benzyl-3-ethoxy-5-methyl-1H-pyrazol-1-yl)-5-(trifluoromethyl)pyridine]: 0.5 to 5 µM (≈ 0.181 to 1.81 µg/mL). Consider `COc1ccc(-n2nc(OC(C)C)c(Oc3c(F)cccc3F)c2C)nn1` [example 174, 3-(4-(2,6-difluorophenoxy)-3-isopropoxy-5-methyl-1H-pyrazol-1-yl)-6-methoxypyridazine], for which the MIC50 was 0.05 to 0.5 µM (≈ 0.0188 to 0.188 µg/mL). Turning to `Cc1cnc(-n2nc(OC(C)C)c(Oc3c(F)cccc3F)c2C)nc1` [example 47, 2-(4-(2,6-difluorophenoxy)-3-isopropoxy-5-methyl-1H-pyrazol-1-yl)-5-methylpyrimidine], the MIC50 was in the range of 0.0005 to 0.05 µM (≈ 0.00018 to 0.018 µg/mL). The molecule `CCOc1nn(-c2ccccn2)c2c1CCN(Cc1ccccc1)C2` [example 1, 6-benzyl-3-ethoxy-1-(pyridin-2-yl)-4,5,6,7-tetrahydro-1H-pyrazolo[3,4-c]pyridine] displayed an MIC50 greater than 5 µM. As to `CCOc1nn(-c2nccc(C)n2)c(C)c1Cc1ccccc1` [example 113, 2-(4-benzyl-3-ethoxy-5-methyl-1H-pyrazol-1-yl)-4-methylpyrimidine], the MIC50 was in the range of 0.5 to 5 µM (≈ 0.154 to 1.54 µg/mL).

In the case of `CCOc1nn(-c2ncc(CC)cn2)c(C)c1Sc1ccccc1` [example 152, 2-(3-ethoxy-5-methyl-4-(phenylthio)-1H-pyrazol-1-yl)-5-ethylpyrimidine], the MIC50 was 0.05 to 0.5 µM (≈ 0.017 to 0.17 µg/mL). The molecule `Cc1c(Oc2c(F)cccc2F)c(OC(C)C)nn1-c1ccc(C(C)(F)F)cn1` [example 91, 5-(1,1-difluoroethyl)-2-(4-(2,6-difluorophenoxy)-3-isopropoxy-5-methyl-1H-pyrazol-1-yl)pyridine] showed an MIC50 of 0.05 to 0.5 µM (≈ 0.0205 to 0.205 µg/mL).

Regarding `CCOc1nn(-c2ccccn2)c(C)c1-c1ccc(OC)cc1` [example 160, 2-(3-ethoxy-4-(4-methoxyphenyl)-5-methyl-1H-pyrazol-1-yl)pyridine], the MIC50 was greater than 5 µM.

Molecule `CCOc1nn(-c2ccc(C3CC3)cn2)c(C)c1Oc1cccc(C(F)(F)F)c1` [example 93, 5-cyclopropyl-2-(3-ethoxy-5-methyl-4-(3-(trifluoromethyl)phenoxy)-1H-pyrazol-1-yl)pyridine] yielded an MIC50 of 0.05 to 0.5 µM (≈ 0.0202 to 0.202 µg/mL).

`CCc1cnc(-n2nc(OC(C)C)c(Cc3ccccc3)c2C)nc1` [example 139, 2-(4-benzyl-3-isopropoxy-5-methyl-1H-pyrazol-1-yl)-5-ethylpyrimidine] returned an MIC50 of 0.0005 to 0.05 µM (≈ 0.000168 to 0.0168 µg/mL). The same measure for `CC(C)Oc1nn(-c2ncc(C3CC3)cn2)cc1Oc1ccccc1` [example 100, 5-cyclopropyl-2-(3-isopropoxy-4-phenoxy-1H-pyrazol-1-yl)pyrimidine]: 0.05 to 0.5 µM (≈ 0.0168 to 0.168 µg/mL); for `Cc1c(Oc2c(F)cccc2F)c(OC(C)C)nn1-c1ncc(C2CC2)cc1C#N` [example 46, 5-cyclopropyl-2-(4-(2,6-difluorophenoxy)-3-isopropoxy-5-methyl-1H-pyrazol-1-yl)nicotinonitrile]: 0.0005 to 0.05 µM (≈ 0.000205 to 0.0205 µg/mL); for `CCOc1nn(-c2ccc(C3CC3)cn2)c(C)c1Oc1ccccc1` [example 92, 5-cyclopropyl-2-(3-ethoxy-5-methyl-4-phenoxy-1H-pyrazol-1-yl)pyridine]: 0.05 to 0.5 µM (≈ 0.0168 to 0.168 µg/mL). The result for `Cc1c(Cc2ccccc2)c(OC(C)C)nn1-c1ncccc1C#N` [example 89, 2-(4-benzyl-3-isopropoxy-5-methyl-1H-pyrazol-1-yl)nicotinonitrile] reads 0.5 to 5 µM (≈ 0.166 to 1.66 µg/mL); that for `CC(C)Oc1nn(-c2ccc(C3CC3)cn2)cc1S(=O)(=O)c1ccccc1` [example 180, 5-cyclopropyl-2-(3-isopropoxy-4-(phenylsulfonyl)-1H-pyrazol-1-yl)pyridine], 0.05 to 0.5 µM (≈ 0.0192 to 0.192 µg/mL); that for `Cc1c(Oc2c(F)cccc2F)c(OC(C)C)nn1-c1cnc(C2CC2)cn1` [example 45, 2-cyclopropyl-5-(4-(2,6-difluorophenoxy)-3-isopropoxy-5-methyl-1H-pyrazol-1-yl)pyrazine], 0.0005 to 0.05 µM (≈ 0.000193 to 0.0193 µg/mL). Regarding `CC(C)Oc1nn(-c2ccc(C3CC3)cn2)cc1C(O)c1ccccc1` (stereo not shown) [example 179, (1-(5-cyclopropylpyridin-2-yl)-3-isopropoxy-1H-pyrazol-4-yl)(phenyl)methanol], the MIC50 lay in the range of 0.05 to 0.5 µM (≈ 0.0175 to 0.175 µg/mL).

Molecule `Cc1c(Oc2c(F)cccc2F)c(OC(C)C)nn1-c1cnc(C2CC2)nc1` [example 133, 2-cyclopropyl-5-(4-(2,6-difluorophenoxy)-3-isopropoxy-5-methyl-1H-pyrazol-1-yl)pyrimidine] came in with an MIC50 of 0.05 to 0.5 µM (≈ 0.0193 to 0.193 µg/mL). In turn, `Cc1c(Oc2c(F)cccc2F)c(OC(C)C)nn1-c1cnc(C(C)(C)C)nc1` [example 131, 2-tert-butyl-5-(4-(2,6-difluorophenoxy)-3-isopropoxy-5-methyl-1H-pyrazol-1-yl)pyrimidine] gave an MIC50 of 0.05 to 0.5 µM (≈ 0.0201 to 0.201 µg/mL). The molecule `COc1ccc(-n2nc(OC(C)C)c(Oc3c(F)cccc3F)c2C)cn1` [example 130, 5-(4-(2,6-difluorophenoxy)-3-isopropoxy-5-methyl-1H-pyrazol-1-yl)-2-methoxypyridine] showed an MIC50 of 0.5 to 5 µM (≈ 0.188 to 1.88 µg/mL). `CCc1ccc(-n2nc(OC(C)C)c(Oc3c(F)cccc3F)c2C)nc1` [example 9B, 2-(4-(2,6-difluorophenoxy)-3-isopropoxy-5-methyl-1H-pyrazol-1-yl)-5-ethylpyridine] had an MIC50 of 0.05 to 0.5 µM (≈ 0.0187 to 0.187 µg/mL). In turn, `CCOc1nn(-c2ccccc2)c(C)c1Cc1ccccc1` [example 134, 4-benzyl-3-ethoxy-5-methyl-1-phenyl-1H-pyrazole] displayed an MIC50 of 0.5 to 5 µM (≈ 0.146 to 1.46 µg/mL). The result for `CCOc1nn(-c2ccc(C3CC3)cn2)c(C)c1C(C)(O)c1ccccc1` (stereo not shown) [example 178, 1-(1-(5-cyclopropylpyridin-2-yl)-3-ethoxy-5-methyl-1H-pyrazol-4-yl)-1-phenylethanol] reads 0.5 to 5 µM (≈ 0.182 to 1.82 µg/mL). The same measure for `Cc1c(Oc2c(F)cccc2F)c(OC(C)C)nn1-c1ccc(Cl)nn1` [example 15, 3-chloro-6-(4-(2,6-difluorophenoxy)-3-isopropoxy-5-methyl-1H-pyrazol-1-yl)pyridazine]: 0.05 to 0.5 µM (≈ 0.019 to 0.19 µg/mL); for `Cc1ccc(-n2nc(OC(C)C)c(Oc3c(F)cccc3F)c2C)cn1` [example 128, 5-(4-(2,6-difluorophenoxy)-3-isopropoxy-5-methyl-1H-pyrazol-1-yl)-2-methylpyridine]: 0.0005 to 0.05 µM (≈ 0.00018 to 0.018 µg/mL); for `CCOc1cc(Cc2ccccc2)n(-c2ccccn2)n1` [example 3, 2-(5-benzyl-3-ethoxy-1H-pyrazol-1-yl)pyridine]: greater than 5 µM. In turn, `CCc1nnc(-n2nc(OC(C)C)c(Oc3c(F)cccc3F)c2C)nc1O` [example 118, 3-(4-(2,6-difluorophenoxy)-3-isopropoxy-5-methyl-1H-pyrazol-1-yl)-6-ethyl-1,2,4-triazin-5-ol] gave an MIC50 of 0.0005 to 0.05 µM (≈ 0.000196 to 0.0196 µg/mL). The same measure for `COc1cc(-c2ccc(C(C)(C)C)cc2)n(-c2ccccn2)n1` [example 146, 2-(5-(4-tert-butylphenyl)-3-methoxy-1H-pyrazol-1-yl)pyridine]: greater than 5 µM; for `CCOc1nn(-c2ccc(C3CC3)cn2)c(C)c1Oc1ccc(C(F)(F)F)cc1` [example 94, 5-cyclopropyl-2-(3-ethoxy-5-methyl-4-(4-(trifluoromethyl)phenoxy)-1H-pyrazol-1-yl)pyridine]: 0.5 to 5 µM (≈ 0.202 to 2.02 µg/mL).
